Assay results reported in the NIST ThermoML archive (doi:10.1021/je060271a).
± gives the expanded uncertainty stated by the source.

Settings: 283.14 K, Liquid, Vibrating tube method

Measured: mass density

CCCCCCC(=O)OCC(COC(=O)CCCCCC)(COC(=O)CCCCCC)COC(=O)CCCCCC [pentaerythritol tetraheptanoate]
992.5 ± 1.2 kg/m3: 11627 kPa | 11657 kPa | 11707 kPa | 11732 kPa | 11762 kPa | 11813 kPa | 11901 kPa | 11981 kPa
992 ± 1.2 kg/m3: 10595 kPa | 10727 kPa | 10770 kPa | 10795 kPa | 10863 kPa | 10909 kPa | 10931 kPa | 10979 kPa | 11072 kPa
992.1 ± 1.2 kg/m3: 10886 kPa | 10957 kPa | 11100 kPa | 11173 kPa
992.8 ± 1.2 kg/m3: 12099 kPa | 12161 kPa | 12264 kPa | 12288 kPa | 12308 kPa | 12333 kPa | 12506 kPa
993.2 ± 1.2 kg/m3: 12971 kPa | 12999 kPa | 13021 kPa | 13045 kPa | 13096 kPa | 13123 kPa | 13201 kPa
991.3 ± 1.2 kg/m3: 9317.3 kPa | 9436.7 kPa | 9504.9 kPa | 9521.4 kPa | 9557.6 kPa | 9594.2 kPa | 9610.7 kPa | 9664.8 kPa
991.9 ± 1.2 kg/m3: 10445 kPa | 10485 kPa | 10529 kPa | 10549 kPa | 10615 kPa | 10640 kPa | 10661 kPa | 10682 kPa | 10706 kPa | 10748 kPa | 10816 kPa | 10842 kPa
993.5 ± 1.2 kg/m3: 13418 kPa | 13451 kPa | 13541 kPa | 13558 kPa | 13578 kPa | 13595 kPa | 13612 kPa | 13632 kPa | 13648 kPa | 13666 kPa
992.4 ± 1.2 kg/m3: 11370 kPa | 11499 kPa | 11524 kPa | 11548 kPa | 11573 kPa | 11602 kPa | 11682 kPa
993.4 ± 1.2 kg/m3: 13243 kPa | 13294 kPa | 13329 kPa | 13348 kPa | 13365 kPa | 13399 kPa | 13435 kPa | 13488 kPa | 13524 kPa
991.5 ± 1.2 kg/m3: 9574.2 kPa | 9771.3 kPa | 9809.7 kPa | 9923.9 kPa | 9960.2 kPa | 10037 kPa | 10096 kPa
992.9 ± 1.2 kg/m3: 12373 kPa | 12398 kPa | 12418 kPa | 12464 kPa | 12527 kPa | 12553 kPa | 12622 kPa
991.1 ± 1.2 kg/m3: 9069.4 kPa | 9103.3 kPa | 9136.4 kPa | 9183.2 kPa | 9198.7 kPa | 9217 kPa | 9232.5 kPa | 9267.1 kPa | 9368.1 kPa | 9538.2 kPa
993.6 ± 1.2 kg/m3: 13471 kPa | 13504 kPa | 13721 kPa | 13738 kPa | 13759 kPa | 13776 kPa
993.3 ± 1.2 kg/m3: 12876 kPa | 13072 kPa | 13146 kPa | 13176 kPa | 13225 kPa | 13262 kPa | 13278 kPa | 13313 kPa | 13383 kPa
992.6 ± 1.2 kg/m3: 11788 kPa | 11870 kPa | 12013 kPa | 12040 kPa | 12067 kPa | 12190 kPa
991.7 ± 1.2 kg/m3: 9999.8 kPa | 10197 kPa | 10258 kPa | 10296 kPa | 10319 kPa | 10509 kPa
993 ± 1.2 kg/m3: 12439 kPa | 12485 kPa | 12574 kPa | 12596 kPa | 12665 kPa | 12687 kPa | 12713 kPa | 12734 kPa | 12827 kPa
992.3 ± 1.2 kg/m3: 11266 kPa | 11318 kPa | 11394 kPa | 11422 kPa | 11446 kPa | 11470 kPa
993.1 ± 1.2 kg/m3: 12643 kPa | 12760 kPa | 12782 kPa | 12805 kPa | 12854 kPa | 12899 kPa | 12926 kPa | 12948 kPa
993.7 ± 1.2 kg/m3: 13687 kPa | 13704 kPa
992.7 ± 1.2 kg/m3: 11844 kPa | 11928 kPa | 11954 kPa | 12127 kPa | 12219 kPa | 12243 kPa | 12353 kPa
991.6 ± 1.2 kg/m3: 9902.5 kPa | 9942.1 kPa | 9978.3 kPa | 10018 kPa | 10059 kPa | 10078 kPa | 10137 kPa | 10156 kPa | 10174 kPa | 10216 kPa | 10277 kPa
991.2 ± 1.2 kg/m3: 9088.3 kPa | 9152.5 kPa | 9248.5 kPa | 9282.6 kPa | 9298.5 kPa | 9333.1 kPa | 9348.8 kPa | 9382 kPa | 9401.3 kPa | 9417.4 kPa | 9468.9 kPa | 9485.1 kPa
991.4 ± 1.2 kg/m3: 9452.9 kPa | 9644.3 kPa | 9681.7 kPa | 9698.7 kPa | 9719.2 kPa | 9736.6 kPa | 9792.1 kPa | 9845.5 kPa | 9866.9 kPa | 9884.8 kPa
991.8 ± 1.2 kg/m3: 10114 kPa | 10239 kPa | 10339 kPa | 10359 kPa | 10382 kPa | 10401 kPa | 10425 kPa | 10465 kPa | 10574 kPa
992.2 ± 1.2 kg/m3: 11005 kPa | 11028 kPa | 11050 kPa | 11122 kPa | 11145 kPa | 11197 kPa | 11221 kPa | 11244 kPa | 11294 kPa | 11342 kPa
991 ± 1.2 kg/m3: 8943.7 kPa | 8967.5 kPa | 8987.8 kPa | 9012.5 kPa | 9033.2 kPa | 9051.6 kPa | 9118.5 kPa | 9168 kPa
